# “And” between values parts separate entries of the source, which are not always exact repeats. Equal values may be shown once. Read-outs that look alike come from different tables or passages of the source.
# Columns and labels:
# [1] = system: Kuramochi ovarian cancer cells; assay: MTT assay, cell viability of Kuramochi; assay type: cell-based; conditions: read-out: IC50 against Kuramochi
# Description: (§1) An MTT assay was used to test the cytotoxicity. All different cell lines were seeded in 96-well plates at 1×10^5 cells/well for 24 hours followed by removal of the culture medium and subsequent addition of culture medium containing different concentrations of the precursors. At designated time (24/48/72 hours), 10 μL MTT solution (5 mg/mL) was added to each well and incubated at 37° C. for another 4 hours, and then 100 μL of SDS-HCl solution was added to stop the reduction reaction and dissolve the purple formazan. The absorbance of each well at 595 nm was measured by a multimode microplate reader. The cytotoxicity assay was performed three times and the average value of the three measurements was taken.
# Additional cell viability assays were carried out using conjugates 1a and 1b, optionally with 3, against HepG2 human liver carcinoma cells, Saos-2 osteosarcoma cells, T98G glioblastoma cells, HS-5 (normal bone marrow stromal cells), A2780 ovarian cancer cells (parental line to A2780cis), and Kuramochi ovarian cancer cells. Conjugate 1a was particularly effective against ovarian and cervical cancer cells.
# [2] = system: ER stress markers and ROS in A2780cis and HeLa cells; assay: Western blot of ER stress markers and CLSM detection of ROS; assay type: cell-based, human; conditions: 1a 12.5 μM, 12 hours for ROS
# Description: Further exploration of the mode of action of 1a against A2780cis and HeLa cells was carried out via Western blot for the following ER stress markers: CHOP, Bip, PDI, IRE1α, Calnexin, Erol-Lα, PERK, and β-actin; or p-SAPK/JNK. Western blot was carried out via gel electrophoresis at […] for 1.5 hrs, and then transferring the protein on the gel to PVDF membranes for overnight at […] (4° C.). After that, the membrane was incubated with primary antibodies (obtained from Cell Signaling Technology) overnight at 4° C. The membrane was then incubated with secondary antibodies for 1 h at room temperature. This was followed by the reaction with ECL solutions for 10 minutes, and analysis of the results by autoradiography. Generation of ROS was detected in CLSM images via DHE emissions in exposed cells. CLSM imaging was carried out at the excitation of 543 nm and DHE emission was detected at the wavelength at 575 nm to 625 nm; or detection of anti-phospho-SRC and anti-phospho-Akt.
# [3] = TEM of assemblies in aqueous solution; assay type: physicochemical; conditions: 1.0 wt %
# Description: Sample solution (5 sufficient to cover the grid surface) was placed on the grid. Approximately 10 sec later, sample was rinsed by placing a large drop of the ddH2O on parafilm and allowing the grid to touch the water drop, with the sample-loaded surface facing the parafilm. The grid was tilted and water was gently absorbed from the edge of the grid using a filter paper sliver. This procedure was repeated 3 times. Immediately after rinsing, the staining was conducted by placing a large drop of the uranyl acetate (UA) stain solution on parafilm and allowing the grid to touch the stain solution drop, with the sample-loaded surface facing the parafilm. The grid was tilted and the stain solution was gently absorbed from the edge of the grid using a filter paper sliver. Next, the grid was allowed to dry in air and the grid was examined as soon as possible.
# To further understand the inhibitory activity of 1a, transmission electron microscopy (TEM) was used to confirm the EISA of 1b. […] In contrast, uniform nanofibers (diameter of 10±2 nm) formed after the addition of ALP (1 U/mL) into the solution of 1a (FIG. 3B). The resulted nanofibers entangled with each other to result in a viscous solution. […] But the direct dissolution of 2b (1.0 wt %) provided an aqueous solution containing nanoribbon with the diameter of 17±2 nm and in several hundred nanometer length (FIG. 4B). These observations, collectively, confirmed that enzymatic reaction modulated the morphology of the assemblies of the cholesterol conjugates, which partially contributed to the different inhibitory activities of 1a, 1b, 2a, and 2b. That is, being exposed to the cancer cell, 1a (or 2a) turns into 1b (or 2b), a process catalyzed by the extra- or intracellular enzymes of the cancer cells; the resulting 1b (or 2b) self-assembled to form nanoscale assemblies that result in death of the cancer cell.
# A2780cis cells = assay: MTT assay, cytotoxicity against A2780cis; assay type: cell-based, human
# Description: HeLa, Saos-2, HS-5, HepG2, T98G, and A2780 cells were purchased from American-type Culture Collection (ATCC, USA). A2780cis cell was purchased from Sigma. HeLa cells, HepG-2 cells, and T98G cells were cultured in MEM Medium supplemented with 10% v/v fetal bovine serum, 100 U/mL penicillin, and 100 μg/mL streptomycin. Saos-2 cells were cultured in McCoy's 5a Medium (for Saos-2) supplemented with 15% v/v fetal bovine serum, 100 U/mL penicillin, and 100 μg/mL streptomycin. HS-5 cells were cultured in Dulbecco's Modified Eagle's medium (DMEM) supplemented with 10% v fetal bovine serum (FBS), 100 U/mL penicillin, and 100 μg/mL streptomycin. A2780cis cells were cultured in RPMI 1640 Medium supplemented with 10% v/v fetal bovine serum, 100 U/mL penicillin, and 100 μg/mL streptomycin (cisplatin only necessary every 2-3 passages). All cells were maintained at 37° C. in a humidified atmosphere of 5% CO2.
# as §1
# The activity of conjugate 1a against a platinum-resistant, ovarian cancer cell line (A2780cis) (Behrens et al., “Characterization of a Cis-Diamminedichloroplatinum(Ii)-Resistant Human Ovarian Cancer Cell Line and its Use in Evaluation of Platinum Analogues,” Cancer Res. 47:414 (1987); Masuda et al., “Increased DNA Repair as a Mechanism of Acquired Resistance to Cis-Diamminedichloroplatinum (II) in Human Ovarian Cancer Cell Lines,” Cancer Res. 48:5713 (1988), which are hereby incorporated by reference in their entirety) was first examined. To assess the efficacy of conjugate 1a, the assay was carried out in parallel using the known, clinically used cytotoxic agent, cisplatin.
# lipid rafts in HeLa cell = assay: Laurdan staining of lipid rafts, HeLa; assay type: cell-based, human; conditions: 1a 25 μM, 12 hours
# A2780 cell line = assay: Cell viability of unstimulated or selected A2780 cell line (acquired resistance); assay type: cell-based; conditions: after five weeks treatment with gradually increased concentrations; 24, 48, 72 h
# Description: as §1
# The activity of 1a against non-drug resistant cancer cells was assessed using the A2780 cell line.
smiles,measurement,setting,value
"CC(C)CCC[C@@H](C)C1CC[C@H]2[C@@H]3CC=C4CC(OC(=O)NC(Cc5ccc(OP(=O)(O)O)cc5)C(=O)O)CC[C@]4(C)[C@H]3CC[C@]12C (stereo partly drawn) [1a, Cholesterol-(phospho)D-Tyr]",IC50,[1]; 48 hours,19 µM
same,IC50,[1]; 72 hours,13 µM
same,ER stress markers and ROS generation,[2],induces cell apoptosis via ER stress and generation of ROS
same,morphology in aqueous solution without ALP,[3]; pH 7.4,disorder aggregates
same,diameter of nanofibers formed after addition of ALP,"[3]; pH 7.4, ALP 1 U/mL, 24 hours",10±2 nm
same,cell viability of A2780cis treated by 1a with exogenous ALP,"A2780cis cells; 1a 12.5 μM + ALP 1 U/mL, 48 hour co-culture",partially rescued
same,cell viability of A2780cis treated by 1a with ALP inhibitors,"A2780cis cells; 1a 12.5 μM + L-Phe or levamisole 1 mM, 48 hours",higher cell viability
same,cell viability of A2780cis treated by 1a with cell death signaling inhibitors,"A2780cis cells; 1a 12.5 μM + zVAD-fmk 50 μM, PJ34 1 μM or Nec-1 45 μM, 48 hours","rescued the cells, but only partially"
same,IC50 against A2780cis,A2780cis cells; 72 hours,6.3 µg/mL
same,IC50,"A2780cis cells; Homo sapiens, A2780cis, 48 h, read-out: IC50 against A2780cis, 48 hours",11 µM and 7.7 µg/mL
same,"cells viable (cell viability test, A2780cis)",A2780cis cells; incubated with 1a at 24 hours,more than 80%
same,IC50,"A2780cis cells; read-out: IC50 against A2780cis, 72 hours",9 µM
same,"number of green fluorescent puncta in cell membrane (laurdan, lipid rafts)",lipid rafts in HeLa cell,increased considerably
same,inhibition of A2780 and acquired drug resistance,A2780 cell line,able to inhibit ovarian cancer cells without acquired drug resistance
